Where “and” joins values, the source holds several entries; their conditions need not be identical. Equal entries are not always repeated. Where two headings read alike, the source gives them in different places.
What was measured:
[1] = cited from earlier work
[2] = set-up: method as in reviewer #3 remark; settings: in humans; ref reviewer #3 remark; cited from earlier work
blood-stage P. yoelii = assay: single-dose cure murine model, oral; format: in vivo, P. yoelii in CF1 mice
Source text: Animals were housed at the VAPORHCS in Thoren Maxi-Miser microisolator cages (78 sq. in. floor space) with a maximum density of five females or four males per cage. Cages were maintained on a 12-h light/dark cycle and provided with autoclaved nesting materials (nestlets) for environmental enrichment. All mice had ad libitum access to food and water. Four- to five-week-old female and male outbred CF1 mice (Charles River Laboratories, Raleigh, NC, USA) were randomly assigned to treatment and control groups using a simple randomization procedure (e.g., computer-generated random numbers) to ensure balanced distribution of baseline body weights and starting parasitemia levels across all cohorts. Groups of four mice (n = 4, mean body weight of each group was ~30 g) were infected intravenously with 3.5 × 10^4 P. yoelii (Kenya strain, MRA-428) from a donor animal. Drug administration commenced the day after the animals were inoculated (Day 1). The test drug or the drug combination was dissolved in PEG-400 and administered by oral gavage once daily for 4 successive days in the 4-day suppression model, but only once on Day 1 in the single-dose cure model. Blood was collected via the tail vein with the aid of a syringe needle on Day 5 and then at weekly intervals through Day 28. Blood films were Giemsa-stained and examined microscopically to determine the level of parasitemia. All mice were observed daily to assess clinical signs. Animals with observable parasitemia following the experiments were euthanized; animals cleared of parasitemia from their bloodstream were observed daily with assessment of parasitemia performed weekly until Day 28, at which point, the animal(s) were scored as cured of the infection and then humanely euthanized. All treated mice with a negative smear on Day 28 were considered cured (100% protection). […]

[3] = system: P. falciparum NF54 oocyst development in mosquitoes; assay: standard membrane feeding assay (SMFA); format: in vivo, P. falciparum in Anopheles stephensi; settings: drug in blood meal
Protocol: The SMFA assay was performed using P. falciparum NF54 gametocytes produced in vitro[35]. P. falciparum NF54 gametocytes were grown in human blood cultured in RPMI 1640 GlutaMax medium (Gibco) supplemented with 25 mM HEPES, hypoxanthine, and human serum. De-identified human blood and serum were obtained from the Australian Red Cross Blood Service. Mature (stage V) gametocytes were quantified in Giemsa-stained blood smears. Immediately prior to infection, a feeding mixture comprising 45% human serum and 55% human blood containing 0.15% stage V gametocytes and the desired concentration of drug or vehicle control, was prepared and maintained at 37 °C. Adult female Anopheles stephensi (MR4) mosquitoes reared under the standard insectary conditions[79] were placed in mesh-topped cups and allowed to feed on the gametocyte mixtures in prewarmed glass feeders wrapped with parafilm. […] Mosquito midguts were dissected 7 days after infection, stained in 0.2% mercurochrome, and oocysts were counted using a light microscope.

[4] = system: normal and G6PD-deficient RBCs; assay: eryptosis assay (annexin-V binding, ROS, forward scatter); format: cell-based, human; settings: 48 h incubation
Protocol: In vitro evaluation of eryptosis as a marker for induced hemolytic toxicity was performed using de-identified human blood samples obtained from the Clinical Trial Center at WRAIR, using established methods[55],[81],[82]. Fresh Li-heparin-anticoagulated blood samples was centrifuged and the platelet and leukocyte-containing supernatant was removed. […] Flow cytometry was employed to estimate stimulators of eryptosis: phosphatidylserine exposure at the cell surface from annexin-V-binding, reactive oxygen species (ROS) formation from 2′,7′-dichlorodihydrofluorescein diacetate (DCFDA) dependent fluorescence, and cell volume from forward scatter. […]
After incubation under the respective experimental condition, cell suspension was washed in Ringer solution containing CaCl2 and then stained with Annexin-V-FITC at 37 °C for 15 min under protection from light. The annexin-V-abundance at the erythrocyte surface was subsequently determined on a FACS Calibur. Annexin-V-binding was measured at an excitation wavelength of 488 nm and an emission wavelength of 530 nm. […]
Oxidative stress was determined utilizing DCFDA. […] The DCFDA-loaded erythrocytes were resuspended in Ringer solution and ROS-dependent fluorescence intensity was measured at an excitation wavelength of 488 nm and an emission wavelength of 530 nm on a FACS Calibur. Subsequently, the geomean of the DCFDA dependent fluorescence was determined. […]

[5] = system: P. falciparum NF54 gametocytes; assay: sexual blood-stage gametocyte assay; format: cell-based, Plasmodium falciparum; settings: Days 5 to 7, read Day 14
Protocol: P. falciparum NF54 was used to generate gametocytes. The erythrocytic stage of the parasite was cultured following standard laboratory protocols. Gametocyte production was carried out as described by Miura et al[34]. […] Cultures were maintained in washed human O^+ red blood cells at a final hematocrit of 2%[76]. For gametocyte cultures, parasites were induced using serum-free human media. Gametocyte cultures were maintained in washed human O^+ red blood cells at a final hematocrit of 5%. […] All cultures were maintained at 37 °C in a Billups chamber under a gas mixture of 90% N2, 5% CO2, and 5% O2, with media changes daily. […] DMSO diluted in gametocyte media was used as the control. […] Gametocytemia was assessed on Day 14 post-induction using blood smears stained with the Hema 3^TM Manual Staining System (Fisher) and analyzed by light microscopy.

Which T1/2 ([1]; healthy mice, ref PMID: 23292347) does the source give for `O=C1C(O)=C([C@H]2CC[C@H](c3ccc(Cl)cc3)CC2)C(=O)c2ccccc21` [ATV, atovaquone] here?
The T1/2 was “about 13 h”.

And the t1/2 ([1]; mice plasma)?
Its t1/2 is ~ 13 h.

And the T1/2 [2]?
Its T1/2 is 120 to 140 h.

Which “% survival through Day 28” value (blood-stage P. yoelii; TQ 0 + T111 20 mg/kg) does the source give for `O=c1c2ccc(Oc3ccc(OC(F)(F)F)cc3)cc2[nH]c2cc(Cl)cc(F)c12` [T111] here?
Its value is 0%.

And the “number of mice cured on Day 28” value (blood-stage P. yoelii; TQ 0 + T111 20 mg/kg)?
The value was 0/4.

And the “parasitemia burden on Day 5” value (blood-stage P. yoelii; TQ 0 + T111 20 mg/kg)?
The value was 0.

What about the “% survival through Day 28” value (blood-stage P. yoelii; TQ 0 + T111 30 mg/kg) of the same compound?
The value was 0%.

What about the “number of mice cured on Day 28” value (blood-stage P. yoelii; TQ 0 + T111 30 mg/kg) of the same compound?
The value was 0/4.

What about the “parasitemia burden on Day 5” value (blood-stage P. yoelii; TQ 0 + T111 30 mg/kg) of the same compound?
Its value is 0.

What about the “% survival through Day 28” value (blood-stage P. yoelii; TQ 0 + T111 40 mg/kg) of the same compound?
The value was 25%.

What about the “parasitemia burden on Day 5” value (blood-stage P. yoelii; TQ 0 + T111 40 mg/kg) of the same compound?
Its value is 0.

And the “number of mice cured on Day 28” value (blood-stage P. yoelii; TQ 0 + T111 40 mg/kg, 40 mg/kg)?
Its value is “One of four mice and 1/4”.

And the “% survival through Day 28” value (blood-stage P. yoelii; TQ 0 + T111 50 mg/kg)?
The value was 100%.

What about the “parasitemia burden on Day 5” value (blood-stage P. yoelii; TQ 0 + T111 50 mg/kg) of the same compound?
The value was 0.

And the “number of mice cured on Day 28” value (blood-stage P. yoelii; TQ 0 + T111 50 mg/kg, 50 mg/kg)?
The value was “all of four mice and single-dose cure in all treated mice and 4/4”.

What about the “concentration that eliminated oocyst formation” value [3] of the same compound?
Its value is 4.0 ng/mL and 9.5 nM.

What about the “eryptosis as marker of hemolytic toxicity” value [4] of the same compound?
Its value is “did not show the toxicity seen with TQ”.

And the “inhibition of formation of stage V gametocytes” value ([5]; 1 µM)?
Its value is 75%.

And the “inhibition of formation of stage V gametocytes” value ([5]; 10 µM)?
Its value is 93%.
